Laboratory results from patent US20230190852A1, “COMPOSITIONS AND METHODS FOR JOINT HEALTH” (Unigen, Inc., priority 2013, published 2023).
Values joined by “and” are separate entries in the source; they are usually repeats but may differ in a detail not shown here. Equal values may be shown once. Marks after values point to notes of the source that are not given here.

How the values were obtained:
CD-1 mice = experiment: Nociceptive behavior model elicited by intraplantar injection of formalin; assay type: in vivo; settings: 200 mg/kg oral
Experimental: Mice (n=6 per group) were habituated under inverted Plexiglas observation chamber for 30 minutes to allow them to acclimatize to their surroundings. […] Mice were immediately transferred to their individual observational chamber. […] Mirrors positioned behind the chambers enabled observation of the right hind paw when it was obscured from direct view. […] These behavioral reactions observed for the first five minutes are due to direct action of the irritant on sensory nerve endings where is believed to be as a result of inflammation in the later phase. […] Mice were treated with curcumin (50, 100, 150 or 200 mg/kg) or ibuprofen (200 mg/kg) orally half an hour before intraplantar formalin injection.

Lewis rats = experiment: Carrageenan-induced rat paw edema model (paw edema and pain sensitivity); assay type: in vivo; settings: for Pain sensitivity (Analgesia), percent change vs. vehicle, 1 hr / Paw Edema (Inflammation), percent change vs. vehicle, 1 hr: 1 hr after treatment; for Pain sensitivity (Analgesia), percent change vs. vehicle, 5 hr / Paw Edema (Inflammation), percent change vs. vehicle, 5 hr: 5 hr after treatment; for Pain sensitivity, percent change of vehicle / Paw edema, percent change of vehicle: 200 mg/kg oral 1 hr after carrageenan, female Lewis rats, 200 mg/kg
Experimental: Local inflammation was induced by intraplantar injection of carrageenan λ (Sigma, St. Louis, Mo.; 100 μl of 1% [w/v] in saline) into the plantar surface of right hind paw of sedated rat (with 2.5% isoflurane) at time 0 (T=0) (Gamache et al., J Neurosurg. 65:679, 1986; Guay et al., J. Biol. Chem. 279:24866, 2004; Chou et al., Anesth. Analg. 97:1724, 2003). Rats were acclimated in a procedure room for 20-30 minutes before each measurement was taken. Allodynia was evaluated by measuring responsiveness to the tip of a Randell-Selitto paw pressure test applied perpendicular to the central plantar surface of the right hind paw. A positive response to the applied pressure, noted by sharp withdrawal of the paw, was recorded automatically by an electronic Von Frey Anesthesiometer (2390 series Electrovonfrey, IITC, Woodland Hills, Calif.) (Vivancos et al., Braz. J. Med. Biol. Res. 37:391, 2004). Mechanical allodynia was evaluated before carrageenan inoculation, and thereafter at 1 hr, 2 hr, 4 hr and 6 hr. Paw edema volume was measured with the use of Plethysmometer (IITC, Woodland Hills, Calif.; Model 520) at time 0 (before carrageenan), and then 1 hr, 2 hr, 4 hr, and 6 hr after carrageenan injection. Animals (N=5 per group) were orally gavaged with a positive control ibuprofen (Spectrum Chemical MFG, Gardena, Calif.) (100 or 200 mg/kg); test articles such as: extracts, and combinations of extracts at various doses from 100, 200, 300 to 400 mg/kg and vehicle control (propylene glycol) were given 1 hour after carrageenan inoculation unless specified otherwise.

[1] = 200 mg/kg oral, listed as ibuprofen
[2] = 200 mg/kg oral, 3 hr after treatment

CC(C)Cc1ccc(C(C)C(=O)O)cc1 (stereo not drawn) [Ibuprofen]
Pain Sensitivity 20-40 Minutes after Formalin Injection % ↓ vs. Vehicle (CD-1 mice): 63.5%
Pain sensitivity (Analgesia), percent change vs. vehicle, 1 hr (Lewis rats; 200 mg/kg oral): 55.6* % and 55.1* % and 52.9* %
Paw Edema (Inflammation), percent change vs. vehicle, 1 hr (Lewis rats; 200 mg/kg oral): 43.5* % and 39.5* % and 44.6* %
Pain sensitivity (Analgesia), percent change vs. vehicle, 1 hr (Lewis rats; [1]): 55.1%
Paw Edema (Inflammation), percent change vs. vehicle, 1 hr (Lewis rats; [1]): 39.5%
Pain sensitivity (Analgesia), percent change vs. vehicle, 3 hr (Lewis rats; [2]): 62.7* % and 70.3* % and 62.5* %
Paw Edema (Inflammation), percent change vs. vehicle, 3 hr (Lewis rats; [2]): 58.0* % and 50.4* % and 54.9* %
Paw Edema (Inflammation), percent change vs. vehicle, 3 hr (Lewis rats; 200 mg/kg oral, 3 hr after treatment, listed as ibuprofen): 50.4%
Pain sensitivity (Analgesia), percent change vs. vehicle, 5 hr (Lewis rats; 200 mg/kg oral): 44.6* % and 50.8* % and 48.8* %
Paw Edema (Inflammation), percent change vs. vehicle, 5 hr (Lewis rats; 200 mg/kg oral): 50.3* % and 46.6* % and 50.0* %
Pain sensitivity (Analgesia), percent change vs. vehicle, 5 hr (Lewis rats; [1]): 50.8%
Paw Edema (Inflammation), percent change vs. vehicle, 5 hr (Lewis rats; [1]): 46.6%
Pain sensitivity, percent change of vehicle (Lewis rats; 1 hr): 57.1* % and 55.4* % and 56.4* % and 56.1* % and 53.7* % and 52.4* % and 58.6* %
Paw edema, percent change of vehicle (Lewis rats; 1 hr): 53.2* % and 51.6* % and 53.9* % and 57.2* % and 54.2* % and 53.0* % and 52.5* %
Pain sensitivity, percent change of vehicle (Lewis rats; 3 hr): 61.5* % and 65.9* % and 62.2* % and 59.7* % and 64.0* %
Paw edema, percent change of vehicle (Lewis rats; 3 hr): 64.3* % and 61.9* % and 59.0* % and 67.6* % and 57.7* % and 60.1* % and 62.9* %
Pain sensitivity, percent change of vehicle (Lewis rats; 5 hr): 44.3* % and 49.3* % and 45.0* % and 47.9* % and 47.5* % and 43.3* % and 50.7* %
Paw edema, percent change of vehicle (Lewis rats; 5 hr): 50.6* % and 50.0* % and 52.6* % and 53.5* % and 48.6* % and 51.3* % and 51.6* %
